Measured values taken from ChEMBL document CHEMBL1143254, “Structure-based design of novel 2-amino-6-phenyl-pyrimido[5',4':5,6]pyrimido[1,2-a]benzimidazol-5(6H)-ones as potent and orally active inhibitors of lymphocyte specific kinase (Lck): synthesis, SAR, and in vivo anti-inflammatory activity” (J Med Chem, 2008).
Values after ≈ are worked out from the molar mass of the structure shown.

What was measured:
[1] = Solubility in simulated intestinal fluid at pH 6.8; assay type: physicochemical
[2] = system: Lymphocyte; assay: Inhibition of T cell activation in human peripheral blood lymphocytes by mixed lymphocyte reaction; assay type: functional, cell-based
[3] = system: T-cell; assay: Inhibition of anti-CD3/CD28-induced IL2 production in human T cells; assay type: functional, cell-based
[4] = molecular target: Tyrosine-protein kinase Lck (Homo sapiens, UniProt P06239)
Chain of Tyrosine-protein kinase Lck (P06239 whole entry): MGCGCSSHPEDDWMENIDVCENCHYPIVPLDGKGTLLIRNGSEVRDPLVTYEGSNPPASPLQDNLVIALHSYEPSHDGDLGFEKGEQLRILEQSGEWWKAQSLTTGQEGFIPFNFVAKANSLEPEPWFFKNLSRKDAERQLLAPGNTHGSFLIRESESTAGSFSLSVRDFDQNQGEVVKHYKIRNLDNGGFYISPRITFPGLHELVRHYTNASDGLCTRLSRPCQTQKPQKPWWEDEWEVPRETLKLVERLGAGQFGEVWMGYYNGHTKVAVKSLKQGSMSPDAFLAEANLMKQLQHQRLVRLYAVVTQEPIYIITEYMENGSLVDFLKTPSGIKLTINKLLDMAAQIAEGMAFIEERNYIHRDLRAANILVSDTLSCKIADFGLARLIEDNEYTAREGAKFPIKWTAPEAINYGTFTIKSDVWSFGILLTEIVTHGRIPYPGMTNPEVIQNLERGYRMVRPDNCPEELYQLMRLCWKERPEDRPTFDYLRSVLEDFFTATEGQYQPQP
Description: Inhibition of Lck by HTRF assay

[5] = molecular target: Proto-oncogene tyrosine-protein kinase Src (Homo sapiens, UniProt P12931); assay: Inhibition of Src by HTRF assay
Chain of Proto-oncogene tyrosine-protein kinase Src (P12931 2-536 limits assumed): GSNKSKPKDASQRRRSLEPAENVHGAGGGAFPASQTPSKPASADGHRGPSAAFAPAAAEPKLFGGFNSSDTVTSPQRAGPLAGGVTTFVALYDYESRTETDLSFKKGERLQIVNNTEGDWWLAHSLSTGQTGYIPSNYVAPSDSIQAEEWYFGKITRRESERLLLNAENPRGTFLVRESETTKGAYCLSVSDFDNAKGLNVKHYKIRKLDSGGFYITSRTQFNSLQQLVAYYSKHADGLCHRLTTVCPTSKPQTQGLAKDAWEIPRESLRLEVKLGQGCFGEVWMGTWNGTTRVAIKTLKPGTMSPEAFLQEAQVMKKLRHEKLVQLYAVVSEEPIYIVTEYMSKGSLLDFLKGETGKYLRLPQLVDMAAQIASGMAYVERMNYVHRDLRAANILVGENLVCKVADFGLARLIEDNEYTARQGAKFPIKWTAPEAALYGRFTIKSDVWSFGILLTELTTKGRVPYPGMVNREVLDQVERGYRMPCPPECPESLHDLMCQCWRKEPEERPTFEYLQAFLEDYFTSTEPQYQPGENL

[6] = molecular target: Mitogen-activated protein kinase 14 (Homo sapiens, UniProt Q16539); assay: Inhibition of p38-alpha by HTRF assay
Chain of Mitogen-activated protein kinase 14 (Q16539 whole entry): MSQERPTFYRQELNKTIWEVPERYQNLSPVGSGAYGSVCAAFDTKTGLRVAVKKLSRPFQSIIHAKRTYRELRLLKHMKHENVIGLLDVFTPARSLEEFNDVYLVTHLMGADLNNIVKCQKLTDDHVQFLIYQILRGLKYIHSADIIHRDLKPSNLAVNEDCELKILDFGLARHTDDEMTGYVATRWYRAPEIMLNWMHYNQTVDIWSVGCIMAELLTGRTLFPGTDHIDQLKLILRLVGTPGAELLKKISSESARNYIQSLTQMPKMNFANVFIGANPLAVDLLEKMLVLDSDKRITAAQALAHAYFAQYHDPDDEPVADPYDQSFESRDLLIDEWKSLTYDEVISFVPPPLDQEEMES

[7] = molecular target: Vascular endothelial growth factor receptor 2 (Homo sapiens, UniProt P35968); assay: Inhibition of KDR by HTRF assay
Chain of Vascular endothelial growth factor receptor 2 (P35968 whole entry): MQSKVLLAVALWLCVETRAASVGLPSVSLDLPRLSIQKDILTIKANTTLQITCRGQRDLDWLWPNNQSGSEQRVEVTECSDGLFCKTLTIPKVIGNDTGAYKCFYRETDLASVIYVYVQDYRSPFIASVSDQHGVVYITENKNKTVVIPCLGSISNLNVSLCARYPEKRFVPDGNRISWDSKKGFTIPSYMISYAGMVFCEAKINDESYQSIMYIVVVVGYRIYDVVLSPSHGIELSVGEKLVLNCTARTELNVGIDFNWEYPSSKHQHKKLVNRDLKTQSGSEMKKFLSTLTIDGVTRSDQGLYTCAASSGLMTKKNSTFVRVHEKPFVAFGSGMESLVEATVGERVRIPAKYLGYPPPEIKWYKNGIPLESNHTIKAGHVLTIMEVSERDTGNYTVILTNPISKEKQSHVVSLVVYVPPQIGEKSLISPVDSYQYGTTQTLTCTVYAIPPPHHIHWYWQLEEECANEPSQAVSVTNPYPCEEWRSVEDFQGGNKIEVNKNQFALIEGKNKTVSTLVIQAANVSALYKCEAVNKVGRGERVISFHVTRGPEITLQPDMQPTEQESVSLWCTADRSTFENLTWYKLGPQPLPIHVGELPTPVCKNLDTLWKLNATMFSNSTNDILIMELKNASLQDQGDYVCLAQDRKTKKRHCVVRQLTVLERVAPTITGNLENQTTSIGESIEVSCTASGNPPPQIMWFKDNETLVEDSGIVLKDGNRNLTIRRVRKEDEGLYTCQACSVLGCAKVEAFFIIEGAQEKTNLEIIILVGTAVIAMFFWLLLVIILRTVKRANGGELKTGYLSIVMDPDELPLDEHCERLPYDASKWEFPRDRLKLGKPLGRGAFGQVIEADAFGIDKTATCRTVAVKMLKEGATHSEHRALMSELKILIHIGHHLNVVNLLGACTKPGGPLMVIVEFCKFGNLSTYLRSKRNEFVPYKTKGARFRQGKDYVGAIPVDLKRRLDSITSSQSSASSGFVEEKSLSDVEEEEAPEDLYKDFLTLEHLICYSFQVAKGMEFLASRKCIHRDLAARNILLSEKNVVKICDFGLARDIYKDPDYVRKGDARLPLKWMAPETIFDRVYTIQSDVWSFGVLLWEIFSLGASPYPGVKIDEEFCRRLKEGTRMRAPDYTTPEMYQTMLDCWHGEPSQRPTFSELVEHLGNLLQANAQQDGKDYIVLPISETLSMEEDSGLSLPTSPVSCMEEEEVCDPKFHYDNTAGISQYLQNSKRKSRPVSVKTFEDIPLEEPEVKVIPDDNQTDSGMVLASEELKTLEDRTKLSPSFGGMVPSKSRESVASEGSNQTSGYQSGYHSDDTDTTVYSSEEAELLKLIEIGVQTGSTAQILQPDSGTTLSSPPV

[8] = AUC in collagen-induced arthritis Lewis rat; assay type: ADME, organism-based; conditions: plasma
[9] = Volume of distribution at steady state in Sprague-Dawley rat at 2 mg/kg, iv; assay type: ADME, organism-based; parameters: dose 2 mg/kg, route intravenous; conditions: in vivo, read-out: Vdss
[10] = system: T-cell; assay: Inhibition of anti-CD3/CD28-induced IL2 secretion in human T cells stimulated with phorbol myristic acid and calcium ionophore
[11] = molecular target: Ribosomal protein S6 kinase alpha-5 (Homo sapiens, UniProt O75582); assay: Inhibition of MSK1 by HTRF assay
Chain of Ribosomal protein S6 kinase alpha-5 (O75582 whole entry): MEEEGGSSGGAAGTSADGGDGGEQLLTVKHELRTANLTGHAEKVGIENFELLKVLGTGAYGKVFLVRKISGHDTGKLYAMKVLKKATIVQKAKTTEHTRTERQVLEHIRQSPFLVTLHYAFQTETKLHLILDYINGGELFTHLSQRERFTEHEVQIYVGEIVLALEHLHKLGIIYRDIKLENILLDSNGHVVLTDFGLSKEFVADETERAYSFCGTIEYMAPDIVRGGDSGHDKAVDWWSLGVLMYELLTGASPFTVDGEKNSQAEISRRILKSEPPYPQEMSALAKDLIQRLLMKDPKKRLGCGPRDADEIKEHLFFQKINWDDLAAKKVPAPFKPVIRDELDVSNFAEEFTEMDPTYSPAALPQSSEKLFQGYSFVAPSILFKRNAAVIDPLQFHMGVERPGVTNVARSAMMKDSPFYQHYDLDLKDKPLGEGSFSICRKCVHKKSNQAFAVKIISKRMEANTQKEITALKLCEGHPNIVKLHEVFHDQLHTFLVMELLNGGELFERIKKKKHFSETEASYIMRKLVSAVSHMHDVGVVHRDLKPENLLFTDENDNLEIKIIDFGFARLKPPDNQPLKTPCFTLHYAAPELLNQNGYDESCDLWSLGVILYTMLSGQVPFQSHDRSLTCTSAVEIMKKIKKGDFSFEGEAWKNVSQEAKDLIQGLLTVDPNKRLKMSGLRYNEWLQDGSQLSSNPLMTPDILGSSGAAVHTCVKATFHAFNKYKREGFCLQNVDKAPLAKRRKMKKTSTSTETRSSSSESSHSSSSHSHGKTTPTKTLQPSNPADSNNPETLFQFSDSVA

[12] = molecular target: Mitogen-activated protein kinase 9 (Homo sapiens, UniProt P45984); assay: Inhibition of JNK2 by HTRF assay
Chain of Mitogen-activated protein kinase 9 (P45984 whole entry): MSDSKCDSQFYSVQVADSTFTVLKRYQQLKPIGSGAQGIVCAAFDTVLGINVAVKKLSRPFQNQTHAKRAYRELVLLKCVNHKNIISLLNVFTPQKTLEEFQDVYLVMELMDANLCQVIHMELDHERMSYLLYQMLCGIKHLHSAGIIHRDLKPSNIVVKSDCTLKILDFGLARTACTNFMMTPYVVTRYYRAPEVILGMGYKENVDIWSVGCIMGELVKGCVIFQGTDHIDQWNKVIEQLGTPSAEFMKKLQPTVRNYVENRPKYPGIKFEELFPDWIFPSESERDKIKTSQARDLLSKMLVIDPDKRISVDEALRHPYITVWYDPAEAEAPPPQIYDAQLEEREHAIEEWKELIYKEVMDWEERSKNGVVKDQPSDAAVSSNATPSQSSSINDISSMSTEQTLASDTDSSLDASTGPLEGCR

[13] = molecular target: Tyrosine-protein kinase Lyn (Homo sapiens, UniProt P07948); assay: Inhibition of Lyn by HTRF assay
[14] = system: Jurkat; assay: Cytotoxicity against human Jurkat T cells assessed as cell viability after 72 hrs
[15] = AUC (0 to infinity) in Sprague-Dawley rat at 2 mg/kg, iv; assay type: ADME, organism-based; parameters: time infinity, dose 2 mg/kg, route intravenous; conditions: plasma
[16] = system: Mus musculus; assay: Inhibition of anti-CD3-induced IL2 production in BALB/c mouse serum at 30 mg/kg, po by ELISA relative to control; assay type: functional
[17] = Oral bioavailability in Sprague-Dawley rat at 5 mg/kg; assay type: ADME, organism-based; conditions: in vivo
[18] = system: Rattus norvegicus; assay: Antiinflammatory activity against collagen-induced arthritis in Lewis rat assessed as reduction of paw swelling at 0.3 mg/kg, po qd for 7 days relative to control; assay type: functional; parameters: scale not given: the % may be the effect or the level left
[19] = Cmax in collagen-induced arthritis Lewis rat; assay type: ADME, organism-based; conditions: in vivo
[20] = system: Mus musculus; assay: Inhibition of anti-CD3-induced IL2 production in BALB/c mouse serum at 3 mg/kg, po by ELISA relative to control; assay type: functional
[21] = molecular target: Tyrosine-protein kinase SYK (Homo sapiens, UniProt P43405); assay: Inhibition of Syk by HTRF assay
[22] = molecular target: Tyrosine-protein kinase ZAP-70 (Homo sapiens, UniProt P43403); assay: Inhibition of ZAP-70 by HTRF assay
[23] = molecular target: Tyrosine-protein kinase BTK (Homo sapiens, UniProt Q06187); assay: Inhibition of Btk by HTRF assay
[24] = organism: Mus musculus; assay: Inhibition of anti-CD3-induced IL2 production in BALB/c mouse serum by ELISA; assay type: functional
[25] = Half life in Sprague-Dawley rat at 2 mg/kg, iv; assay type: ADME, organism-based; parameters: dose 2 mg/kg, route intravenous; conditions: in vivo
[26] = Inhibition of anti-CD3/CD28-induced human T cell proliferation
[27] = system: Rattus norvegicus; assay: Antiinflammatory activity against collagen-induced arthritis in Lewis rat assessed as reduction of paw swelling at 3 mg/kg, po qd for 7 days relative to control; assay type: functional; parameters: scale not given: the % may be the effect or the level left
[28] = molecular target: Angiopoietin-1 receptor (Homo sapiens, UniProt Q02763); assay: Inhibition of Tie-2 by HTRF assay
[29] = molecular target: Serine/threonine-protein kinase B-raf (Homo sapiens, UniProt P15056); assay: Inhibition of b-Raf by HTRF assay
[30] = system: Rattus norvegicus; assay: Inhibition of Mycobacterium tuberculosis H37Ra-induced arthritis in Lewis rat assessed as reduction of paw swelling at 10 mg/kg, po daily from day 9 to day 17 relative to control; assay type: functional
[31] = molecular target: Mast/stem cell growth factor receptor Kit (Homo sapiens, UniProt P10721); assay: Inhibition of c-Kit by HTRF assay
[32] = system: Rattus norvegicus; assay: Antiinflammatory activity against collagen-induced arthritis in Lewis rat assessed as reduction of paw swelling at 10 mg/kg, po qd for 7 days relative to control; assay type: functional; parameters: scale not given: the % may be the effect or the level left
[33] = system: Rattus norvegicus; assay: Inhibition of Mycobacterium tuberculosis H37Ra-induced arthritis in Lewis rat assessed as reduction of paw swelling at 20 mg/kg, po daily from day 9 to day 17 relative to control; assay type: functional
[34] = system: Rattus norvegicus; assay: Antiinflammatory activity against collagen-induced arthritis in Lewis rat assessed as reduction of paw swelling at 1 mg/kg, po qd for 7 days relative to control; assay type: functional; parameters: scale not given: the % may be the effect or the level left
[35] = molecular target: Mitogen-activated protein kinase 10 (Homo sapiens, UniProt P53779); assay: Inhibition of JNK3 by HTRF assay
Chain of Mitogen-activated protein kinase 10 (P53779 whole entry): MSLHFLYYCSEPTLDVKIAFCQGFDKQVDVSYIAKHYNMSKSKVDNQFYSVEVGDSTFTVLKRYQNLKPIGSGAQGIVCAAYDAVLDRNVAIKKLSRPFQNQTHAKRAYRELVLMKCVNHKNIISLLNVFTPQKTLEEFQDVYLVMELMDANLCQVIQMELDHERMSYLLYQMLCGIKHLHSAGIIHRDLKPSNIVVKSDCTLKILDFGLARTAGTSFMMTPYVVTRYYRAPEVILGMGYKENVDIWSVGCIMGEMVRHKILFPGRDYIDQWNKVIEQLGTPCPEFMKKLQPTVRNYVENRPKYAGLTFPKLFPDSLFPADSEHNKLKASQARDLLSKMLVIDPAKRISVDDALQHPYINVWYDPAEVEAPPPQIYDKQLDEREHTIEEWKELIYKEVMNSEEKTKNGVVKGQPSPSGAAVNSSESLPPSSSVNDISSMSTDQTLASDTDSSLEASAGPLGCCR

[36] = Cmax in Sprague-Dawley rat at 5 mg/kg, po; assay type: ADME, organism-based; parameters: dose 5 mg/kg, route oral; conditions: in vivo
[37] = AUC (0 to infinity) in Sprague-Dawley rat at 5 mg/kg, po; assay type: ADME, organism-based; parameters: time infinity, dose 5 mg/kg, route oral; conditions: plasma
[38] = system: Mus musculus; assay: Inhibition of anti-CD3-induced IL2 production in BALB/c mouse serum at 10 mg/kg, po by ELISA relative to control; assay type: functional
[39] = Clearance in Sprague-Dawley rat at 2 mg/kg, iv; assay type: ADME, organism-based; parameters: dose 2 mg/kg, route intravenous; conditions: in vivo
[40] = system: Rattus norvegicus; assay: Antiinflammatory activity against collagen-induced arthritis in po dosed Lewis rat assessed as reduction of paw swelling; assay type: functional
[41] = system: Rattus norvegicus; assay: Inhibition of Mycobacterium tuberculosis H37Ra-induced arthritis in po dosed Lewis rat assessed as reduction of paw swelling; assay type: functional
[42] = Tmax in Sprague-Dawley rat at 5 mg/kg, po; assay type: ADME, organism-based; parameters: dose 5 mg/kg, route oral; conditions: in vivo
[43] = molecular target: Mitogen-activated protein kinase 3 (Homo sapiens, UniProt P27361); assay: Inhibition of Erk1 by HTRF assay
Chain of Mitogen-activated protein kinase 3 (P27361 whole entry): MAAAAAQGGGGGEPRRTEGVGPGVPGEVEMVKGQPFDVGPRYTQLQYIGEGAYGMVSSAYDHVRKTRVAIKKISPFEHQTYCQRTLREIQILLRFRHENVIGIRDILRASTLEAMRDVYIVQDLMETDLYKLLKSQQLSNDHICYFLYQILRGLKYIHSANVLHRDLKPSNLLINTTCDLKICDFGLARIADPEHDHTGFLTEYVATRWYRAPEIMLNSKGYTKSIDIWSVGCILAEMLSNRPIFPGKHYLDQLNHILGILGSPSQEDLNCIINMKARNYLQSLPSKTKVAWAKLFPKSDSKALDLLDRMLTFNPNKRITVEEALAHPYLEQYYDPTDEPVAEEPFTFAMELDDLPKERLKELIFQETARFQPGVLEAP

[44] = AUC in Mycobacterium tuberculosis H37Ra-induced arthritis Lewis rat; assay type: ADME, organism-based; conditions: plasma
[45] = molecular target: Tyrosine-protein kinase JAK3 (Homo sapiens, UniProt P52333); assay: Inhibition of JAK3 by HTRF assay
[46] = molecular target: Tyrosine-protein kinase ITK/TSK (Homo sapiens, UniProt Q08881); assay: Inhibition of Itk by HTRF assay
[47] = system: Rattus norvegicus; assay: Inhibition of Mycobacterium tuberculosis H37Ra-induced arthritis in Lewis rat assessed as reduction of paw swelling at 60 mg/kg, po daily from day 9 to day 17 relative to control; assay type: functional
[48] = Cmax in Mycobacterium tuberculosis H37Ra-induced arthritis Lewis rat; assay type: ADME, organism-based; conditions: in vivo

COc1cc(Nc2ncc3c(=O)n(-c4c(C)cccc4C)c4nc5ccccc5n4c3n2)ccc1OCCCN1CCN(C)CC1
solubility [1]: > 200 µg/mL
IC50 [2]: 140 nM
IC50 [3]: 1500 nM
IC50 [4]: 12 nM
IC50 [5]: 180 nM
IC50 [6]: > 10000 nM
IC50 [7]: 5000 nM

CN1CCN(c2ccc(Nc3ncc4c(=O)n(-c5c(Cl)cccc5Cl)c5nc6ccccc6n5c4n3)cc2)CC1
IC50 [2]: 1100 nM
IC50 [4]: 10 nM
IC50 [5]: 49 nM
IC50 [7]: 530 nM

COc1ccc(Cl)cc1-n1c(=O)c2cnc(Nc3ccc(N4CCN(C)CC4)cc3)nc2n2c3ccccc3nc12
IC50 [2]: 1000 nM
IC50 [4]: 23 nM
IC50 [5]: 1400 nM
IC50 [7]: > 25000 nM

CCCCOc1ccc(-n2c(=O)c3cnc(Nc4ccc(N5CCN(C)CC5)cc4)nc3n3c4ccccc4nc23)cc1
IC50 [4]: 4600 nM
IC50 [5]: 8300 nM
IC50 [7]: > 25000 nM

COc1cc(Nc2ncc3c(=O)n(-c4c(C)cccc4C)c4nc5ccccc5n4c3n2)cc(OC)c1OCCN1CCOCC1
solubility [1]: 18 µg/mL (≈ 29 µM)
IC50 [2]: 180 nM
IC50 [3]: 360 nM
IC50 [4]: 10 nM
IC50 [5]: 44 nM
IC50 [6]: > 10000 nM
IC50 [7]: 1700 nM

COc1cc(Nc2ncc3c(=O)n(-c4c(C)cccc4C)c4nc5ccccc5n4c3n2)ccc1OCCN1CCN(C)CC1
IC50 [2]: 150 nM
IC50 [3]: 16000 nM
IC50 [4]: 19 nM
IC50 [5]: 240 nM
IC50 [6]: > 10000 nM
IC50 [7]: 5500 nM

Cc1cccc(C)c1-n1c(=O)c2cnc(Nc3ccc(OCCN4CCN(C)CC4)c(F)c3)nc2n2c3ccccc3nc12
IC50 [2]: 510 nM
IC50 [3]: 2700 nM
IC50 [4]: 23 nM
IC50 [5]: 160 nM
IC50 [6]: > 10000 nM
IC50 [7]: 7400 nM

Cc1cccc(C)c1-n1c(=O)c2cnc(Nc3ccc(OCCCN4CCCCC4)cc3)nc2n2c3ccccc3nc12
solubility [1]: 101 µg/mL (≈ 176 µM)
IC50 [2]: 370 nM
IC50 [3]: 3600 nM
IC50 [4]: 12 nM
IC50 [5]: 160 nM
IC50 [6]: 4300 nM
IC50 [7]: 5100 nM

Cc1cccc(-n2c(=O)c3cnc(Nc4ccc(N5CCN(C)CC5)cc4)nc3n3c4ccccc4nc23)c1
IC50 [4]: 96 nM
IC50 [5]: 1000 nM
IC50 [7]: > 25000 nM

Cc1cccc(C)c1-n1c(=O)c2cnc(Nc3ccc(N4CCN(C)CC4)cc3)nc2n2c3ccccc3nc12
AUC [8]: 3.3 µM·h
Vd [9]: 7.5 L/kg
IC50 [10]: 5800 nM
IC50 [11]: > 100000 nM
IC50 [12]: > 40000 nM
IC50 [13]: 21 nM
solubility [1]: 153 µg/mL (≈ 288 µM)
IC50 [14]: 490 nM
AUC(0-inf) [15]: 1150 ng·h/mL
inhibition in vivo at 30 mg/kg [16]: 56%
bioavailability [17]: 17%
Activity [18]: 15%
IC50 [2]: 47 nM
IC50 [3]: 460 nM
Cmax [19]: 500 nM
inhibition in vivo at 3 mg/kg [20]: 15%
IC50 [21]: 200 nM
IC50 [22]: 1500 nM
IC50 [23]: 410 nM
ED50 [24]: 26 mg/kg
half-life [25]: 3.12 h
IC50 [26]: 530 nM
Activity [27]: 49%
IC50 [28]: 750 nM
IC50 [29]: 540 nM
inhibition in vivo at 10 mg/kg [30]: 17%
IC50 [31]: 560 nM
Activity [32]: 95%
inhibition in vivo at 20 mg/kg [33]: 64%
Activity [34]: 21%
IC50 [35]: 7300 nM
Cmax [36]: 82 ng/mL
AUC(0-inf) [37]: 862 ng·h/mL
IC50 [6]: > 10000 nM
inhibition in vivo at 10 mg/kg [38]: 28%
clearance [39]: 30 mL/min/kg
ED50 [40]: 3.2 mg/kg
ED50 [41]: 24 mg/kg
Tmax [42]: 3 h
IC50 [43]: > 100000 nM
AUC [44]: 2.7 µM·h
IC50 [45]: 150 nM
IC50 [46]: > 20000 nM
inhibition in vivo at 60 mg/kg [47]: 90%
IC50 [7]: 5100 nM
Cmax [48]: 700 nM

Cc1cccc(C)c1-n1c(=O)c2cnc(Nc3ccc(OCCN(C)C)cc3)nc2n2c3ccccc3nc12
IC50 [2]: 84 nM
IC50 [4]: 28 nM
IC50 [5]: 440 nM
IC50 [6]: > 10000 nM
IC50 [7]: 6600 nM
